According to ChEMBL document CHEMBL5352448, “Novel tryptanthrin derivatives with benzenesulfonamide substituents: Design, synthesis, and anti-inflammatory evaluation” (Eur J Med Chem, 2023):
pIC50: −log10 of the molar value.

Legend:
RAW264.7 [1] = assay: Antiinflammatory activity in mouse RAW264.7 cells assessed as inhibition of LPS-induced NO production at 20 uM preincubated with compound for 1 hrs followed by LPS-stimulation and measured after 24 hrs by griess reagent based assay relative to control; assay type: functional
RAW264.7 [2] = assay: Cytotoxicity against mouse RAW264.7 cells assessed as reduction in cell viability at 40 uM incubated for 24 hrs by MTT assay; assay type: toxicity, cell-based; conditions: raw264.7, 24 h
RAW264.7 [3] = assay: Antiinflammatory activity in mouse RAW264.7 cells assessed as inhibition of LPS-induced NO production preincubated with compound for 1 hrs followed by LPS-stimulation and measured after 24 hrs by griess reagent based assay; assay type: functional, cell-based

With `O=C1c2ccccc2-n2c1nc1ccccc1c2=O` [TRYPTANTHRIN] the inhibition at 20 µM (RAW264.7 [1]) was 31.3%.
In the case of `O=C1c2cc(NS(=O)(=O)c3c(Cl)cccc3Cl)ccc2-n2c1nc1ccccc1c2=O`, the inhibition at 20 µM (RAW264.7 [1]) was 38.4% and the Activity (RAW264.7 [2]) was “Non-Toxic”.
For `O=C1c2cc(NS(=O)(=O)c3ccccc3F)ccc2-n2c1nc1ccccc1c2=O`, the inhibition at 20 µM (RAW264.7 [1]) was 49.1% and the Activity (RAW264.7 [2]) was “Non-Toxic”.
With `O=C1c2ccccc2-n2c1nc1ccc(NS(=O)(=O)c3cccc(F)c3)cc1c2=O` the inhibition at 20 µM (RAW264.7 [1]) was 64.4% and the Activity (RAW264.7 [2]) was “Non-Toxic”.
In the case of `Nc1ccc2c(c1)C(=O)c1nc3ccccc3c(=O)n1-2`, the inhibition at 20 µM (RAW264.7 [1]) was 26.7%.
`COc1ccc(S(=O)(=O)Nc2ccc3c(c2)C(=O)c2nc4ccccc4c(=O)n2-3)cc1` was tested, and the inhibition at 20 µM (RAW264.7 [1]) was 56.4% and the Activity (RAW264.7 [2]) was “Non-Toxic”.
For `O=C1c2cc(NS(=O)(=O)c3ccccc3C(F)(F)F)ccc2-n2c1nc1ccccc1c2=O`, the inhibition at 20 µM (RAW264.7 [1]) was 54.3% and the Activity (RAW264.7 [2]) was “Non-Toxic”.
With `O=C1c2cc(NS(=O)(=O)c3cccc(F)c3)ccc2-n2c1nc1ccccc1c2=O` the inhibition at 20 µM (RAW264.7 [1]) was 37.5% and the Activity (RAW264.7 [2]) was “Non-Toxic”.
With `O=C1c2ccccc2-n2c1nc1ccc(NS(=O)(=O)c3ccccc3F)cc1c2=O` the pIC50 (RAW264.7 [3]) was 5.57, the inhibition at 20 µM (RAW264.7 [1]) was 88.2% and the Activity (RAW264.7 [2]) was “Non-Toxic”.
In the case of `O=C1c2cc(NS(=O)(=O)c3ccc(F)cc3)ccc2-n2c1nc1ccccc1c2=O`, the inhibition at 20 µM (RAW264.7 [1]) was 42.5% and the Activity (RAW264.7 [2]) was “Non-Toxic”.
`O=C1c2ccccc2-n2c1nc1ccc(NS(=O)(=O)c3ccc(Br)cc3)cc1c2=O` was tested, and the inhibition at 20 µM (RAW264.7 [1]) was 34.2% and the Activity (RAW264.7 [2]) was “Non-Toxic”.
`Cc1ccc(S(=O)(=O)Nc2ccc3nc4n(c(=O)c3c2)-c2ccccc2C4=O)cc1` was tested, and the pIC50 (RAW264.7 [3]) was 5.54, the inhibition at 20 µM (RAW264.7 [1]) was 90.2% and the Activity (RAW264.7 [2]) was “Non-Toxic”.
`COc1ccc(S(=O)(=O)Nc2ccc3nc4n(c(=O)c3c2)-c2ccccc2C4=O)cc1OC` was tested, and the inhibition at 20 µM (RAW264.7 [1]) was 73% and the Activity (RAW264.7 [2]) was “Non-Toxic”.
For `CC(=O)Nc1ccc(S(=O)(=O)Nc2ccc3nc4n(c(=O)c3c2)-c2ccccc2C4=O)cc1`, the inhibition at 20 µM (RAW264.7 [1]) was 47.2% and the Activity (RAW264.7 [2]) was “Non-Toxic”.
In the case of `O=C1c2ccccc2-n2c1nc1ccc(NS(=O)(=O)c3ccc(F)cc3)cc1c2=O`, the pIC50 (RAW264.7 [3]) was 5.56, the inhibition at 20 µM (RAW264.7 [1]) was 85.4% and the Activity (RAW264.7 [2]) was “Non-Toxic”.
`O=C1c2ccccc2-n2c1nc1ccc(NS(=O)(=O)c3ccccc3C(F)(F)F)cc1c2=O` was tested, and the inhibition at 20 µM (RAW264.7 [1]) was 74.9% and the Activity (RAW264.7 [2]) was “Non-Toxic”.
For `Cc1ccc(S(=O)(=O)Nc2ccc3c(c2)C(=O)c2nc4ccccc4c(=O)n2-3)cc1`, the inhibition at 20 µM (RAW264.7 [1]) was 55.8% and the Activity (RAW264.7 [2]) was “Non-Toxic”.
With `O=C1c2cc(NS(=O)(=O)c3ccccc3)ccc2-n2c1nc1ccccc1c2=O` the inhibition at 20 µM (RAW264.7 [1]) was 28.1% and the Activity (RAW264.7 [2]) was “Non-Toxic”.
